molecular target: T1, Avi-KRAS G12D (1-169) GppNHp/RAF1 RBD-3xFLAG (52-151) (Homo sapiens, UniProt P01116, G12D); test: Raf1-KRAS G12D-GppNHP disruption HTRF assay (Biological Example 1); assay type: binding; conditions: KRAS G12D-GppNHp/RAF1 RBD HTRF
T1 construct: Avi-KRAS G12D (1-169)
In short: (§1)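 Measured with a KRAS/RAF1 HTRF assay at pH 7.5 in 10% DMSO, with two 1 h room-temperature incubations with shaking.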

T1 sequence (P01116 1-169 isoform P01116-2 G12D): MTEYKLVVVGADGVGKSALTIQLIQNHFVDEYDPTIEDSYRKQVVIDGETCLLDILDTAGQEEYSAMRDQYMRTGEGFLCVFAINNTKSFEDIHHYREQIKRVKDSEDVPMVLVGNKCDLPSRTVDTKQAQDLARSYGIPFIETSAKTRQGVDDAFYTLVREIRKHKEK

SMILES	IC50 [µM]
CCC(=O)N1C[C@@H](N(C)c2nc(OC[C@@]34CCCN3C[C@H](F)C4)nc3c(F)c(-c4ccc(F)c5sc(N)c(C#N)c45)c(C(F)(F)F)cc23)C[C@@H]1C [Compound 435]	0.1 to 1
CC(C)C(=O)N1C[C@@H](N(C)c2nc(OC[C@@]34CCCN3C[C@H](F)C4)nc3c(F)c(-c4ccc(F)c5sc(N)c(C#N)c45)c(C(F)(F)F)cc23)C[C@@H]1C [Compound 436]	1 to 10
C[C@H]1C[C@H](N(C)c2nc(OC[C@@]34CCCN3C[C@H](F)C4)nc3c(F)c(-c4ccc(F)c5sc(N)c(C#N)c45)c(C(F)(F)F)cc23)CN1C(=O)C1CC1 [Compound 437]	0.1 to 1
CC(=O)N1C2CCC1CN(c1nc(OC[C@@]34CCCN3C[C@H](F)C4)nc3c(F)c(-c4ccc(F)c5sc(N)c(C#N)c45)c(C(F)(F)F)cc13)C2 [Compound 438]	0.1 to 1
N#Cc1c(N)sc2c(F)ccc(-c3c(C(F)(F)F)cc4c(N5CC6CCC(C5)N6C(=O)C5CC5)nc(OC[C@@]56CCCN5C[C@H](F)C6)nc4c3F)c12 [Compound 439]	0.1 to 1
CN1C[C@H](N(C)c2nc(OC[C@@]34CCCN3C[C@H](F)C4)nc3c(F)c(-c4ccc(F)c5sc(N)c(C#N)c45)c(C(F)(F)F)cc23)CCC1=O [Compound 441]	1 to 10

molecular target: T2, Avi-KRAS G12R (1-169) GppNHp/RAF1 RBD-3xFLAG (52-151) (Homo sapiens, UniProt P01116, G12R); test: Raf1-KRAS G12R-GppNHP disruption HTRF assay (Biological Example 1); assay type: binding; conditions: KRAS G12R-GppNHp/RAF1 RBD HTRF
T2 construct: Avi-KRAS G12R (1-169)
T2 sequence (P01116 1-169 isoform P01116-2 G12R): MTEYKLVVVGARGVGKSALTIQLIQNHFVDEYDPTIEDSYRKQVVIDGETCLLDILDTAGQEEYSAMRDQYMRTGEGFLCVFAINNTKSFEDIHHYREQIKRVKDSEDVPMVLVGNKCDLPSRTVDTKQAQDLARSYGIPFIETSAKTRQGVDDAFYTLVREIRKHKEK
In short: as §1

SMILES	IC50 [µM]
CCC(=O)N1C[C@@H](N(C)c2nc(OC[C@@]34CCCN3C[C@H](F)C4)nc3c(F)c(-c4ccc(F)c5sc(N)c(C#N)c45)c(C(F)(F)F)cc23)C[C@@H]1C [Compound 435]	0.1 to 1
CC(C)C(=O)N1C[C@@H](N(C)c2nc(OC[C@@]34CCCN3C[C@H](F)C4)nc3c(F)c(-c4ccc(F)c5sc(N)c(C#N)c45)c(C(F)(F)F)cc23)C[C@@H]1C [Compound 436]	0.1 to 1
C[C@H]1C[C@H](N(C)c2nc(OC[C@@]34CCCN3C[C@H](F)C4)nc3c(F)c(-c4ccc(F)c5sc(N)c(C#N)c45)c(C(F)(F)F)cc23)CN1C(=O)C1CC1 [Compound 437]	0.1 to 1
CC(=O)N1C2CCC1CN(c1nc(OC[C@@]34CCCN3C[C@H](F)C4)nc3c(F)c(-c4ccc(F)c5sc(N)c(C#N)c45)c(C(F)(F)F)cc13)C2 [Compound 438]	0.1 to 1
N#Cc1c(N)sc2c(F)ccc(-c3c(C(F)(F)F)cc4c(N5CC6CCC(C5)N6C(=O)C5CC5)nc(OC[C@@]56CCCN5C[C@H](F)C6)nc4c3F)c12 [Compound 439]	1 to 10
CN1C[C@H](N(C)c2nc(OC[C@@]34CCCN3C[C@H](F)C4)nc3c(F)c(-c4ccc(F)c5sc(N)c(C#N)c45)c(C(F)(F)F)cc23)CCC1=O [Compound 441]	1 to 10

molecular target: T3, Avi-KRAS G12V (1-169) GppNHp/RAF1 RBD-3xFLAG (52-151) (Homo sapiens, UniProt P01116, G12V); test: Raf1-KRAS G12V-GppNHP disruption HTRF assay (Biological Example 1); assay type: binding; conditions: KRAS G12V-GppNHp/RAF1 RBD HTRF
T3 construct: Avi-KRAS G12V (1-169)
T3 sequence (P01116 1-169 isoform P01116-2 G12V): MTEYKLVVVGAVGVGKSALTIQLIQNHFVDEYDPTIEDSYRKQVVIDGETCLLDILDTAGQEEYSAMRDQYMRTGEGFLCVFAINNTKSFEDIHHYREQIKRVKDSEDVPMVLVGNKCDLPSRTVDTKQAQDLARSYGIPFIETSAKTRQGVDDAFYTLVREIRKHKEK
In short: as §1

SMILES	IC50 [µM]
CCC(=O)N1C[C@@H](N(C)c2nc(OC[C@@]34CCCN3C[C@H](F)C4)nc3c(F)c(-c4ccc(F)c5sc(N)c(C#N)c45)c(C(F)(F)F)cc23)C[C@@H]1C [Compound 435]	0.1 to 1
CC(C)C(=O)N1C[C@@H](N(C)c2nc(OC[C@@]34CCCN3C[C@H](F)C4)nc3c(F)c(-c4ccc(F)c5sc(N)c(C#N)c45)c(C(F)(F)F)cc23)C[C@@H]1C [Compound 436]	1 to 10
C[C@H]1C[C@H](N(C)c2nc(OC[C@@]34CCCN3C[C@H](F)C4)nc3c(F)c(-c4ccc(F)c5sc(N)c(C#N)c45)c(C(F)(F)F)cc23)CN1C(=O)C1CC1 [Compound 437]	0.1 to 1
CC(=O)N1C2CCC1CN(c1nc(OC[C@@]34CCCN3C[C@H](F)C4)nc3c(F)c(-c4ccc(F)c5sc(N)c(C#N)c45)c(C(F)(F)F)cc13)C2 [Compound 438]	1 to 10
N#Cc1c(N)sc2c(F)ccc(-c3c(C(F)(F)F)cc4c(N5CC6CCC(C5)N6C(=O)C5CC5)nc(OC[C@@]56CCCN5C[C@H](F)C6)nc4c3F)c12 [Compound 439]	1 to 10
CN1C[C@H](N(C)c2nc(OC[C@@]34CCCN3C[C@H](F)C4)nc3c(F)c(-c4ccc(F)c5sc(N)c(C#N)c45)c(C(F)(F)F)cc23)CCC1=O [Compound 441]	1 to 10

molecular target: T4, Avi-KRAS WT (1-169) GppNHp/RAF1 RBD-3xFLAG (52-151) (Homo sapiens, UniProt P01116); test: Raf1-KRAS WT-GppNHP disruption HTRF assay (Biological Example 1); assay type: binding; conditions: KRAS WT-GppNHp/RAF1 RBD HTRF
T4 construct: Avi-KRAS WT (1-169)
T4 sequence (P01116 1-169 isoform P01116-2): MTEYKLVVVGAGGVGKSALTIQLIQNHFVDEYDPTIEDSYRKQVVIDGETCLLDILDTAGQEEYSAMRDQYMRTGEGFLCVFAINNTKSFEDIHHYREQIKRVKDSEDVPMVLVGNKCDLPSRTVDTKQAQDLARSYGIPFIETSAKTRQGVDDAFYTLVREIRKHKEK
In short: as §1

SMILES	IC50 [µM]
CCC(=O)N1C[C@@H](N(C)c2nc(OC[C@@]34CCCN3C[C@H](F)C4)nc3c(F)c(-c4ccc(F)c5sc(N)c(C#N)c45)c(C(F)(F)F)cc23)C[C@@H]1C [Compound 435]	0.1 to 1
CC(C)C(=O)N1C[C@@H](N(C)c2nc(OC[C@@]34CCCN3C[C@H](F)C4)nc3c(F)c(-c4ccc(F)c5sc(N)c(C#N)c45)c(C(F)(F)F)cc23)C[C@@H]1C [Compound 436]	1 to 10
C[C@H]1C[C@H](N(C)c2nc(OC[C@@]34CCCN3C[C@H](F)C4)nc3c(F)c(-c4ccc(F)c5sc(N)c(C#N)c45)c(C(F)(F)F)cc23)CN1C(=O)C1CC1 [Compound 437]	0.1 to 1
CC(=O)N1C2CCC1CN(c1nc(OC[C@@]34CCCN3C[C@H](F)C4)nc3c(F)c(-c4ccc(F)c5sc(N)c(C#N)c45)c(C(F)(F)F)cc13)C2 [Compound 438]	0.1 to 1
N#Cc1c(N)sc2c(F)ccc(-c3c(C(F)(F)F)cc4c(N5CC6CCC(C5)N6C(=O)C5CC5)nc(OC[C@@]56CCCN5C[C@H](F)C6)nc4c3F)c12 [Compound 439]	1 to 10
CN1C[C@H](N(C)c2nc(OC[C@@]34CCCN3C[C@H](F)C4)nc3c(F)c(-c4ccc(F)c5sc(N)c(C#N)c45)c(C(F)(F)F)cc23)CCC1=O [Compound 441]	0.1 to 1

system: GP2d cells (KRAS G12D); test: Cell-based pERK HTRF assay in GP2d cell (Biological Example 2); conditions: GP2d, GP2d (KRAS G12D) cells, pERK HTRF
In short: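 60 min compound, 0.25% DMSO, 9-pt half-log curve from 1 μM or 100 nM; DMEM/10% FBS.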

SMILES	IC50 [µM]
CCC(=O)N1C[C@@H](N(C)c2nc(OC[C@@]34CCCN3C[C@H](F)C4)nc3c(F)c(-c4ccc(F)c5sc(N)c(C#N)c45)c(C(F)(F)F)cc23)C[C@@H]1C [Compound 435]	< 0.1
CC(C)C(=O)N1C[C@@H](N(C)c2nc(OC[C@@]34CCCN3C[C@H](F)C4)nc3c(F)c(-c4ccc(F)c5sc(N)c(C#N)c45)c(C(F)(F)F)cc23)C[C@@H]1C [Compound 436]	< 0.1
C[C@H]1C[C@H](N(C)c2nc(OC[C@@]34CCCN3C[C@H](F)C4)nc3c(F)c(-c4ccc(F)c5sc(N)c(C#N)c45)c(C(F)(F)F)cc23)CN1C(=O)C1CC1 [Compound 437]	< 0.1
CC(=O)N1C2CCC1CN(c1nc(OC[C@@]34CCCN3C[C@H](F)C4)nc3c(F)c(-c4ccc(F)c5sc(N)c(C#N)c45)c(C(F)(F)F)cc13)C2 [Compound 438]	< 0.1
N#Cc1c(N)sc2c(F)ccc(-c3c(C(F)(F)F)cc4c(N5CC6CCC(C5)N6C(=O)C5CC5)nc(OC[C@@]56CCCN5C[C@H](F)C6)nc4c3F)c12 [Compound 439]	< 0.1
CN1C[C@H](N(C)c2nc(OC[C@@]34CCCN3C[C@H](F)C4)nc3c(F)c(-c4ccc(F)c5sc(N)c(C#N)c45)c(C(F)(F)F)cc23)CCC1=O [Compound 441]	< 0.1

system: SW620 cells (KRAS G12V); test: Cell-based pERK HTRF assay in SW620 cell (Biological Example 4); conditions: Homo sapiens, SW-620, SW620 (KRAS G12V) cells, pERK HTRF
In short: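 SW620 cells were treated for 4 h with compound in a 9-point half-log series from 1 μM top (0.25% DMSO), then lysed. Phospho-ERK was detected by HTRF with d2 and Eu cryptate antibodies after 4–24 h at room temperature, read at 615 nm emission.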

SMILES	IC50 [µM]
CCC(=O)N1C[C@@H](N(C)c2nc(OC[C@@]34CCCN3C[C@H](F)C4)nc3c(F)c(-c4ccc(F)c5sc(N)c(C#N)c45)c(C(F)(F)F)cc23)C[C@@H]1C [Compound 435]	< 0.1
CC(C)C(=O)N1C[C@@H](N(C)c2nc(OC[C@@]34CCCN3C[C@H](F)C4)nc3c(F)c(-c4ccc(F)c5sc(N)c(C#N)c45)c(C(F)(F)F)cc23)C[C@@H]1C [Compound 436]	< 0.1
C[C@H]1C[C@H](N(C)c2nc(OC[C@@]34CCCN3C[C@H](F)C4)nc3c(F)c(-c4ccc(F)c5sc(N)c(C#N)c45)c(C(F)(F)F)cc23)CN1C(=O)C1CC1 [Compound 437]	< 0.1
CC(=O)N1C2CCC1CN(c1nc(OC[C@@]34CCCN3C[C@H](F)C4)nc3c(F)c(-c4ccc(F)c5sc(N)c(C#N)c45)c(C(F)(F)F)cc13)C2 [Compound 438]	< 0.1
N#Cc1c(N)sc2c(F)ccc(-c3c(C(F)(F)F)cc4c(N5CC6CCC(C5)N6C(=O)C5CC5)nc(OC[C@@]56CCCN5C[C@H](F)C6)nc4c3F)c12 [Compound 439]	< 0.1
CN1C[C@H](N(C)c2nc(OC[C@@]34CCCN3C[C@H](F)C4)nc3c(F)c(-c4ccc(F)c5sc(N)c(C#N)c45)c(C(F)(F)F)cc23)CCC1=O [Compound 441]	< 0.1

Reference: patent US20260042764A1, “COMPOSITIONS AND METHODS FOR INHIBITION OF KRAS” (TheRas, Inc., priority 2022, published 2026)
